Calls of active or inactive are those of the source. No rule for the calls is given here.
How the values were obtained:
[1] = false-positive firefly luciferase signal increase – D54 LucT cells, luminescence, dry powder, counter-screen for N-linked glycosylation inhibitor project, dose response (AID 652060); details: D54 LucT luciferase counterscreen, luminescence, 24 h; at 19.5 µM (top of the series)
[2] = test system: D54 LucT luciferase counterscreen, luminescence, 24 h; assay: as above

With CCOc1ccc(S(=O)(=O)NCc2ccccn2)cc1NC(=O)c1ccccc1F the luciferase activity increase [1] was 0% (inactive).
With CC(=O)N1CCC(=O)c2cc3ccccc3cc21 the luciferase activity increase [1] was 33.3% (inactive).
With Cc1ccc(C(=O)c2cc([N+](=O)[O-])ccc2N2CCOCC2)cc1C the luciferase activity increase [1] was 66.7% (inactive).
For Cc1ccc(CCC(=O)Nc2ncc(Cc3cc(Cl)ccc3Cl)s2)o1, the luciferase activity increase [1] was -33.3% (inactive).
In the case of CCC1=Nc2cc(C(=O)NCCCOC)ccc2Sc2ccccc21, the luciferase activity increase [1] is reported as -33.3% (inactive).
In the case of COC(=O)c1cn(C(=O)c2ccc(OC)cc2)c2ccccc12, the AC40 [2] is reported as 15400 nM.
For O=C1CCNc2cc3ccccc3cc21, the luciferase activity increase [1] was -66.7% (inactive).
With O=C(Cc1ccccc1)c1nnc(-c2ccccc2)o1 the luciferase activity increase [1] was 33.3% (inactive).
For Cc1cc(C)nc(/N=C(\N)Nc2ccc(OCc3ccccc3)cc2)n1, the luciferase activity increase [1] was -33.3% (inactive).
For Cc1cc(C)cc(C(=O)N2CC(=O)Nc3ccccc32)c1, the luciferase activity increase [1] was 33.3% (inactive).
With CCOC(=O)COc1cccc2c(=O)n(CC(=O)NCc3ccccc3)ccc12 the luciferase activity increase [1] was 0% (inactive).
Work on COc1ccccc1-c1nnc(SCc2ccccc2)o1 yielded an AC40 [2] of 632 nM.
For Brc1ccc(CSc2nnc(-c3ccccc3)o2)cc1, the luciferase activity increase [1] was 0% (inactive).
Work on CCCNS(=O)(=O)c1cccc(C(=O)OCc2cc(=O)oc3cc(OC)ccc23)c1 yielded an AC40 [2] of 2140 nM.
With C/C(=N\NC(=O)c1c([N+](=O)[O-])c(C)nn1C)c1ccc(NC(=O)C2CCCC2)cc1 the luciferase activity increase [1] was 0% (inactive).
In the case of Cc1[nH][nH]c(=O)c1C(c1ccc(-c2ccc(Cl)c(Cl)c2)o1)c1c(C)[nH][nH]c1=O, the luciferase activity increase [1] is reported as 0% (inactive).
With CCOC(=O)c1ccc(Oc2cc(C)nc(SC)n2)cc1 the AC40 [2] was 3390 nM.
In the case of COc1ccc(CSc2nnc(-c3ccccc3)o2)cc1, the luciferase activity increase [1] is reported as 50% (inactive).
For Cc1ccc(Oc2ccc(S(=O)(=O)N3CCOCC3)cc2C(N)=O)c(-n2nc3ccccc3n2)c1, the luciferase activity increase [1] was 33.3% (inactive).
With CC(=O)N[C@H]1[C@@H](O[C@@H]2OC(C[C@@H](O)C3O[C@@H](n4ccc(=O)[nH]c4=O)[C@H](O)[C@@H]3O)[C@H](O)[C@H](O)[C@H]2NC(=O)/C=C/CCCCCCCCCCC(C)C)O[C@H](CO)[C@@H](O)[C@@H]1O (stereo partly specified) the luciferase activity increase [1] was -50% (inactive).
Work on COc1cc(-c2nnc(SCC3(c4ccc(Br)cc4)OCCO3)o2)cc(OC)c1OC yielded an AC40 [2] of 930 nM.
With CCCOC(=O)c1[nH]c2c(c1C)C(=O)CC(c1cccs1)C2 (stereo unspecified) the luciferase activity increase [1] was 50% (inactive).
With COc1ccc2c(COC(=O)c3cccc(S(=O)(=O)NCC(C)C)c3)cc(=O)oc2c1 the luciferase activity increase [1] was 66.7% (inactive).
With COc1ccc(NC(=O)C(=O)c2cn(CC(=O)N3CCCC3)c3ccccc23)cc1 the luciferase activity increase [1] was -33.3% (inactive).
In the case of COc1cc(Nc2c3c(nc4ccccc24)CCCC3)cc(OC)c1OC, the luciferase activity increase [1] is reported as 0% (inactive).
In the case of CCn1c2ccccc2c2cc(NC(=O)c3cc(OC)c(OC)c(OC)c3)ccc21, the luciferase activity increase [1] is reported as -33.3% (inactive).
In the case of COc1ccccc1CSc1nnc(-c2ccccc2)o1, the AC40 [2] is reported as 845 nM.
For CCN(CC)CCCNc1nc2cc(OC)c(OC)cc2c2nc(-c3ccccc3)nn12, the luciferase activity increase [1] was -33.3% (inactive).
With CCN(CC)CCOc1ccc2c(c1)C(=NNC(=O)c1ccccn1)c1cc(OCCN(CC)CC)ccc1-2 the luciferase activity increase [1] was -33.3% (inactive).
In the case of Cc1cc(NC(=O)CSc2nc(-c3ccco3)cc(C(F)(F)F)n2)no1, the luciferase activity increase [1] is reported as 0% (inactive).
In the case of Cc1cccc(C)c1OCCNC(=O)C(=O)NCc1ccco1, the luciferase activity increase [1] is reported as 33.3% (inactive).
For O=C1CCN(Cc2ccccc2)c2cc3ccccc3cc21, the luciferase activity increase [1] was 0% (inactive).
For Cc1cnc(NC(=O)c2cc(S(=O)(=O)N(C)C)ccc2N2CCCC2)s1, the luciferase activity increase [1] was 0% (inactive).
Work on COc1ccc(-c2nnc(SCc3ccccc3)o2)cc1 yielded an AC40 [2] of 5120 nM.
For O=C(N/N=C/c1ccc(Cl)cc1)c1sccc1OCc1ccc(F)cc1, the AC40 [2] was 1600 nM.
With CCCCOc1ccccc1C1CC(=O)NC2=C1C(=O)CCC2 (stereo unspecified) the luciferase activity increase [1] was 0% (inactive).
In the case of CC(=O)c1cccc(NC(=O)CSc2ncc(C(=O)Nc3ccccc3)c(=O)n2C)c1, the luciferase activity increase [1] is reported as 33.3% (inactive).
With COc1ccccc1OCC(=O)NNC(=O)c1ccoc1C the luciferase activity increase [1] was 33.3% (inactive).
With COc1cc(C(=O)NCCOc2cc(C)cc(C)c2)cc(OC)c1OC the luciferase activity increase [1] was 33.3% (inactive).
With Cc1cc(=O)[nH]c(N/N=C/c2cc(C)n(CC(F)(F)F)c2C)n1 the luciferase activity increase [1] was 0% (inactive).
In the case of COc1cccc(N2CCN(C(=O)c3ccc(CS(=O)c4ccc(C)cc4)o3)CC2)c1 (stereo unspecified), the luciferase activity increase [1] is reported as 0% (inactive).
For CC(=O)c1ccc(Oc2cc(C)nc(-n3nc(C)cc3C)n2)cc1, the luciferase activity increase [1] was 0% (inactive).
In the case of Nc1nc(=S)c2ncn([C@@H]3O[C@H](CO)[C@@H](O)[C@H]3O)c2[nH]1, the AC40 [2] is reported as 5190 nM.
Cc1ccc(/C=N/NC(=O)C2COc3ccccc3O2)s1 (stereo unspecified) gave an AC40 [2] of 15300 nM.
In the case of CCN(CC)CCC(=O)Nc1cccc2c1C(=O)c1ccccc1C2=O, the luciferase activity increase [1] is reported as -33.3% (inactive).
With CCOc1ccc(NC(=O)c2cc(OC)nc3ccccc23)cc1 the luciferase activity increase [1] was 0% (inactive).

Source: PubChem BioAssay AID652060 (Broad Institute, 2013)
